Assay results: ChEMBL document CHEMBL4879554, “Data for DCP probe GNE-2256” (2021)
Activity calls are given as the source filed them.

How the values were obtained:
[1] = target: Receptor-interacting serine/threonine-protein kinase 2 (Homo sapiens) (UniProt O43353); assay: RIPK2 Kinase panel; conditions: Compound concentration 1.0 uM
[2] = target: Activated CDC42 kinase 1 (Homo sapiens) (UniProt Q07912); assay: TNK2 Kinase panel; conditions: Compound concentration 1.0 uM
[3] = target: Serine/threonine-protein kinase D1 (Homo sapiens) (UniProt Q15139); assay: PKD1 Kinase panel; conditions: Compound concentration 1.0 uM
[4] = target: Serine/threonine-protein kinase PAK 3 (Homo sapiens) (UniProt O75914); assay: PAK3 Kinase panel; conditions: Compound concentration 1.0 uM
[5] = target: Calcium/calmodulin-dependent protein kinase type 1D (Homo sapiens) (UniProt Q8IU85); assay: CaMKI_delta Kinase panel; conditions: Compound concentration 1.0 uM
[6] = target: Tyrosine-protein kinase Fes/Fps (Homo sapiens) (UniProt P07332); assay: Fes Kinase panel; conditions: Compound concentration 1.0 uM
[7] = target: Beta-2 adrenergic receptor (Homo sapiens) (UniProt P07550); conditions: Compound concentration 10.0 uM
[8] = target: D(2) dopamine receptor (Homo sapiens) (UniProt P14416); conditions: Compound concentration 10.0 uM
[9] = target: Platelet-derived growth factor receptor alpha (Homo sapiens) (UniProt P16234); assay: PDGFR_alpha Kinase panel; conditions: Compound concentration 1.0 uM
[10] = IFNalpha human whole blood assay; assay type: tissue-based
[11] = target: Ribosomal protein S6 kinase alpha-1 (Homo sapiens) (UniProt Q15418); assay: RSK1 Kinase panel; conditions: Compound concentration 1.0 uM
[12] = target: 5-hydroxytryptamine receptor 3A (Homo sapiens) (UniProt P46098); conditions: Compound concentration 10.0 uM
[13] = target: Muscle, skeletal receptor tyrosine-protein kinase (Homo sapiens) (UniProt O15146); assay: MuSK Kinase panel; conditions: Compound concentration 1.0 uM
[14] = target: Alpha-1B adrenergic receptor (Homo sapiens) (UniProt P35368); conditions: Compound concentration 10.0 uM
[15] = target: Delta-type opioid receptor (Homo sapiens) (UniProt P41143); conditions: Compound concentration 10.0 uM
[16] = target: Cyclin-dependent kinase 1/cyclin B (Homo sapiens) (UniProt P06493+P14635+Q8WWL7+O95067); assay: CDK1/cyclinB Kinase panel; assay type: protein-complex assay; conditions: Compound concentration 1.0 uM
[17] = target: Tyrosine-protein kinase Tec (Homo sapiens) (UniProt P42680); assay: TEC Kinase panel; conditions: Compound concentration 1.0 uM
[18] = target: Cyclin-dependent kinase 5/CDK5 activator 1 (Homo sapiens) (UniProt Q00535+Q15078); assay: CDK5/p25 Kinase panel; assay type: protein-complex assay; conditions: Compound concentration 1.0 uM
[19] = target: Kappa-type opioid receptor (Homo sapiens) (UniProt P41145); conditions: Compound concentration 10.0 uM
[20] = target: Histamine H2 receptor (Homo sapiens) (UniProt P25021); conditions: Compound concentration 10.0 uM
[21] = target: Angiopoietin-1 receptor (Homo sapiens) (UniProt Q02763); assay: Tie2 Kinase panel; conditions: Compound concentration 1.0 uM
[22] = target: Activin receptor type-1 (Homo sapiens) (UniProt Q04771); assay: ALK2 Kinase panel; conditions: Compound concentration 1.0 uM
[23] = target: Death-associated protein kinase 3 (Homo sapiens) (UniProt O43293); assay: ZIPK Kinase panel; conditions: Compound concentration 1.0 uM
[24] = species: Homo sapiens; assay: (§1) TAO1 Kinase panel; conditions: Compound concentration 1.0 uM
[25] = target: Serine/threonine-protein kinase TAO1 (Homo sapiens) (UniProt Q7L7X3); assay: as §1; conditions: Compound concentration 1.0 uM
[26] = target: Tyrosine-protein kinase receptor UFO (Homo sapiens) (UniProt P30530); assay: Axl Kinase panel; conditions: Compound concentration 1.0 uM
[27] = target: Ephrin type-A receptor 1 (Homo sapiens) (UniProt P21709); assay: EphA1 Kinase panel; conditions: Compound concentration 1.0 uM
[28] = target: Protein kinase C epsilon type (Homo sapiens) (UniProt Q02156); assay: PKC_epsilon Kinase panel; conditions: Compound concentration 1.0 uM
[29] = target: Fibroblast growth factor receptor 4 (Homo sapiens) (UniProt P22455); assay: FGFR4 Kinase panel; conditions: Compound concentration 1.0 uM
[30] = target: Hepatocyte growth factor receptor (Homo sapiens) (UniProt P08581); assay: Met Kinase panel; conditions: Compound concentration 1.0 uM
[31] = target: Tyrosine-protein kinase JAK1 (Homo sapiens, UniProt P23458); assay: JAK1 Kinase panel
[32] = target: Phosphatidylinositol 4,5-bisphosphate 3-kinase catalytic subunit gamma isoform (Homo sapiens) (UniProt P48736); assay: PI3KG Kinase panel; conditions: Compound concentration 1.0 uM
[33] = target: Wee1-like protein kinase (Homo sapiens) (UniProt P30291); assay: WEE1 Kinase panel; conditions: Compound concentration 1.0 uM
[34] = target: Glycogen synthase kinase-3 alpha (Homo sapiens) (UniProt P49840); assay: GSK3_alpha Kinase panel; conditions: Compound concentration 1.0 uM
[35] = target: 5-hydroxytryptamine receptor 1E (Homo sapiens) (UniProt P28566); conditions: Compound concentration 10.0 uM
[36] = target: Tyrosine-protein kinase ITK/TSK (Homo sapiens) (UniProt Q08881); assay: ITK Kinase panel; conditions: Compound concentration 1.0 uM
[37] = target: Ephrin type-B receptor 3 (Homo sapiens) (UniProt P54753); assay: EphB3 Kinase panel; conditions: Compound concentration 1.0 uM
[38] = target: Serine/threonine-protein kinase PAK 6 (Homo sapiens) (UniProt Q9NQU5); assay: PAK6 Kinase panel; conditions: Compound concentration 1.0 uM
[39] = target: Mu-type opioid receptor (Homo sapiens) (UniProt P35372); conditions: Compound concentration 10.0 uM
[40] = target: Maternal embryonic leucine zipper kinase (Homo sapiens) (UniProt Q14680); assay: MELK Kinase panel; conditions: Compound concentration 1.0 uM
[41] = target: Mitogen-activated protein kinase kinase kinase 5 (Homo sapiens) (UniProt Q99683); assay: ASK1 Kinase panel; conditions: Compound concentration 1.0 uM
[42] = target: GABA-A receptor; anion channel (Rattus norvegicus) (UniProt O09028+P15431+P18506+P18508+P19969+P20236+P23574+P23576+P28471+P28473+P30191+P62813+P63079+P63138+Q91ZM7+Q9ES14); conditions: Compound concentration 10.0 uM
[43] = target: Mitogen-activated protein kinase 8 (Homo sapiens) (UniProt P45983); assay: JNK1_alpha1 Kinase panel; conditions: Compound concentration 1.0 uM
[44] = target: Interleukin-1 receptor-associated kinase 4 (Homo sapiens, UniProt Q9NWZ3); assay: NanoBRET assay (IRAK4, SGC Frankfurt)
[45] = target: Serine/threonine-protein kinase Nek4 (Homo sapiens) (UniProt P51957); assay: NEK4 Kinase panel; conditions: Compound concentration 1.0 uM
[46] = target: 5-hydroxytryptamine receptor 1A (Homo sapiens) (UniProt P08908); conditions: Compound concentration 10.0 uM
[47] = target: Serine/threonine-protein kinase Sgk2 (Homo sapiens) (UniProt Q9HBY8); assay: SGK2 Kinase panel; conditions: Compound concentration 1.0 uM
[48] = target: Tyrosine-protein kinase ZAP-70 (Homo sapiens) (UniProt P43403); assay: ZAP-70 Kinase panel; conditions: Compound concentration 1.0 uM
[49] = target: Activin receptor type-1B (Homo sapiens) (UniProt P36896); assay: ACVR1B Kinase panel; conditions: Compound concentration 1.0 uM
[50] = R848-induced IL-6 production in human whole blood; assay type: tissue-based
[51] = target: Aurora kinase B (Homo sapiens) (UniProt Q96GD4); assay: Aurora_B Kinase panel; conditions: Compound concentration 1.0 uM
[52] = target: Mitogen-activated protein kinase kinase kinase kinase 1 (Homo sapiens) (UniProt Q92918); assay: HPK1 Kinase panel; conditions: Compound concentration 1.0 uM
[53] = target: Proto-oncogene tyrosine-protein kinase Src (Homo sapiens) (UniProt P12931); assay: Src Kinase panel; conditions: Compound concentration 1.0 uM

Chain of Interleukin-1 receptor-associated kinase 4 (Q9NWZ3 whole entry): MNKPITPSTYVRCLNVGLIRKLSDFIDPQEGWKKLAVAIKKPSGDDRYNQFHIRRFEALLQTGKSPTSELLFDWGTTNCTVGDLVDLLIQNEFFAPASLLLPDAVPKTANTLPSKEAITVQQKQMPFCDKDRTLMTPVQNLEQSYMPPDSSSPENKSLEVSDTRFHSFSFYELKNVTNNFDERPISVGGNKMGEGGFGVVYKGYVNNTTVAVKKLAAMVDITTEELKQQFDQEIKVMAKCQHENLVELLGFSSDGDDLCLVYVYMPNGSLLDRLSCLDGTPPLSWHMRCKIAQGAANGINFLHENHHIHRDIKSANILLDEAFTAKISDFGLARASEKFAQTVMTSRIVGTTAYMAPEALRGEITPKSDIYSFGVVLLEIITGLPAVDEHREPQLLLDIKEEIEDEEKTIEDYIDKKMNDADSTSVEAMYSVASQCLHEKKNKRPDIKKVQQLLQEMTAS
Chain of Tyrosine-protein kinase JAK1 (P23458 whole entry, canonical isoform): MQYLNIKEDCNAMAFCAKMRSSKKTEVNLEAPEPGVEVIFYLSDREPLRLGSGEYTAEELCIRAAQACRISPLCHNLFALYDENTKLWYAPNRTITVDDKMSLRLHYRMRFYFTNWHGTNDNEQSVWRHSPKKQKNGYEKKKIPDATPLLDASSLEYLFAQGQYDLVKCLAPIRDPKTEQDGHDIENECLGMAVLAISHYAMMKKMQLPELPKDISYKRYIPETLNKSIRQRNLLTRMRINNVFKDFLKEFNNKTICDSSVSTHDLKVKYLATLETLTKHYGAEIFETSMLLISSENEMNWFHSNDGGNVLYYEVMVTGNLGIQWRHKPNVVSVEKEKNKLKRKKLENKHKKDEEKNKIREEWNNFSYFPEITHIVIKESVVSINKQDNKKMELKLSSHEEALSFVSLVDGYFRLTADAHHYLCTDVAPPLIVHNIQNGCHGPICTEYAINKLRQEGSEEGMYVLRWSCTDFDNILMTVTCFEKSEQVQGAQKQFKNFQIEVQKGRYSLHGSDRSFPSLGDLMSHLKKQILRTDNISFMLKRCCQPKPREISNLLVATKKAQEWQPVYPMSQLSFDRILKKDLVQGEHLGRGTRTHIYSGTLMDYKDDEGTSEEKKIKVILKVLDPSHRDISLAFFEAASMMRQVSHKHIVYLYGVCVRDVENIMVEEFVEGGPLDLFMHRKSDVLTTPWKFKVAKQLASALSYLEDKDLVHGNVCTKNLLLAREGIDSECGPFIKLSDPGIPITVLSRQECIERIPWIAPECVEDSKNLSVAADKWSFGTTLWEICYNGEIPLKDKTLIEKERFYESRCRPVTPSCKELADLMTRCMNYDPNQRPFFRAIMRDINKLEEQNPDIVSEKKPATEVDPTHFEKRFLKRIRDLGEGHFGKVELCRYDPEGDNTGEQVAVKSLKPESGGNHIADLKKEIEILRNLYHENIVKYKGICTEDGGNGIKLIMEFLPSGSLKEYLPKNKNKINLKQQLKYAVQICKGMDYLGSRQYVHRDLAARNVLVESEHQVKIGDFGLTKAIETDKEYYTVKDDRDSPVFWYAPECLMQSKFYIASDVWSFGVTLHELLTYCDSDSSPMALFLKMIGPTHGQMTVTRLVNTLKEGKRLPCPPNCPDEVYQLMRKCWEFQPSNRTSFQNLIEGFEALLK
Chain of Activin receptor type-1B (Homo sapiens) (P36896 whole entry): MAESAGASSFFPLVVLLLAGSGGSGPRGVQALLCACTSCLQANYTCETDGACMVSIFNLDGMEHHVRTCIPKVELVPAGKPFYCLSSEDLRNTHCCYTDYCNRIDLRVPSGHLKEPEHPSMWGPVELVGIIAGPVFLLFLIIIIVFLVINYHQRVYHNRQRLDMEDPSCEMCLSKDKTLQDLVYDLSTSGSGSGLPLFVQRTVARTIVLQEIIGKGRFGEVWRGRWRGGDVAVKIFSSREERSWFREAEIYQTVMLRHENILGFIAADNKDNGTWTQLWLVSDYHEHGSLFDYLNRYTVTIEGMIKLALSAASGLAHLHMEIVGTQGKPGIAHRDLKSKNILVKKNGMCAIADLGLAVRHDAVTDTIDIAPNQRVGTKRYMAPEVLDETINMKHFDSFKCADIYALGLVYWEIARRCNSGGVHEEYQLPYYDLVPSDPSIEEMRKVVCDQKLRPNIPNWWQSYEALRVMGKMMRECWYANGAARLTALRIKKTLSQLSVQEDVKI
Chain of Calcium/calmodulin-dependent protein kinase type 1D (Homo sapiens) (Q8IU85 whole entry, looked up): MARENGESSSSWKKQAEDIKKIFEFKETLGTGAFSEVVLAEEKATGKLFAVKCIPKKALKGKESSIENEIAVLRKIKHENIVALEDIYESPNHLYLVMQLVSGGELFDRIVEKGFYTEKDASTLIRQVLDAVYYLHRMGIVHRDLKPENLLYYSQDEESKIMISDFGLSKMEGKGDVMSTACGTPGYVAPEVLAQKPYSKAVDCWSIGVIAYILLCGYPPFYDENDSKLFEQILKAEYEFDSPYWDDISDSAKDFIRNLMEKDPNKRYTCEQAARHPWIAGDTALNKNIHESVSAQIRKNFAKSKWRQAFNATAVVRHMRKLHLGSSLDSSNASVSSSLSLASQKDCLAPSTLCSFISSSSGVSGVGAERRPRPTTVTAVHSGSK
Chain of Receptor-interacting serine/threonine-protein kinase 2 (Homo sapiens) (O43353 whole entry): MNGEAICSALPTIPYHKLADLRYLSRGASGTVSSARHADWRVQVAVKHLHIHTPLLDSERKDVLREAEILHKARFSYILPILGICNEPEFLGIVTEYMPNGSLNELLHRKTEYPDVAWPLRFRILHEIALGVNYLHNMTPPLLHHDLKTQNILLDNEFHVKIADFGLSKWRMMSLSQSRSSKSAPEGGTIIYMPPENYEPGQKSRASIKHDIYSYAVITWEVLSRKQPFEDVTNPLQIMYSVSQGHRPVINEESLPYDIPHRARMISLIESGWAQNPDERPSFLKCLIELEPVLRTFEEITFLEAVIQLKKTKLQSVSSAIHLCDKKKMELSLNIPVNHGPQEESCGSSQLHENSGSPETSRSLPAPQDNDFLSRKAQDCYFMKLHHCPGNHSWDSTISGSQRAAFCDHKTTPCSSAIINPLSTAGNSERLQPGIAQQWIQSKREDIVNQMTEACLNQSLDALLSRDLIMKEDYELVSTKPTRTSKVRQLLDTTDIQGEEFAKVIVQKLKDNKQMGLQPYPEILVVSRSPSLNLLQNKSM
Chain of Protein kinase C epsilon type (Homo sapiens) (Q02156 whole entry): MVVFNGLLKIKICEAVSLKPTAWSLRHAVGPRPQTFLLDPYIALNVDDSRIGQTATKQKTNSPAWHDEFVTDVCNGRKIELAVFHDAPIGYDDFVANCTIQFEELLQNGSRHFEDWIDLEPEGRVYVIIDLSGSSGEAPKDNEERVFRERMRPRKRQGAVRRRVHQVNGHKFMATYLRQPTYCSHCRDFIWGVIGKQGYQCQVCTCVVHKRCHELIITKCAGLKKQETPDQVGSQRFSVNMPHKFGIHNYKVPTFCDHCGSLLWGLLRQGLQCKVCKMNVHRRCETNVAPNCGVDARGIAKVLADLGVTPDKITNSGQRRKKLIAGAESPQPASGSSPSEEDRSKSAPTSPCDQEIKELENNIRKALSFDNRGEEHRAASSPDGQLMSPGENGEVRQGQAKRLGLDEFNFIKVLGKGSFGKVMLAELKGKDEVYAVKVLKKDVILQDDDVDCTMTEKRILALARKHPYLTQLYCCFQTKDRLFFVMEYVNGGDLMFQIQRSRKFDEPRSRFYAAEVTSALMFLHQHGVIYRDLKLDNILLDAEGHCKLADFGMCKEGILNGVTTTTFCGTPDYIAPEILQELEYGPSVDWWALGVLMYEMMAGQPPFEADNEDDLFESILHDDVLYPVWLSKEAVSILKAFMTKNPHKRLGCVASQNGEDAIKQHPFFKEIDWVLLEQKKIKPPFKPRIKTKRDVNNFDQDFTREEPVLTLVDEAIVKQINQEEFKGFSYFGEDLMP
Chain of Mu-type opioid receptor (Homo sapiens) (P35372 whole entry): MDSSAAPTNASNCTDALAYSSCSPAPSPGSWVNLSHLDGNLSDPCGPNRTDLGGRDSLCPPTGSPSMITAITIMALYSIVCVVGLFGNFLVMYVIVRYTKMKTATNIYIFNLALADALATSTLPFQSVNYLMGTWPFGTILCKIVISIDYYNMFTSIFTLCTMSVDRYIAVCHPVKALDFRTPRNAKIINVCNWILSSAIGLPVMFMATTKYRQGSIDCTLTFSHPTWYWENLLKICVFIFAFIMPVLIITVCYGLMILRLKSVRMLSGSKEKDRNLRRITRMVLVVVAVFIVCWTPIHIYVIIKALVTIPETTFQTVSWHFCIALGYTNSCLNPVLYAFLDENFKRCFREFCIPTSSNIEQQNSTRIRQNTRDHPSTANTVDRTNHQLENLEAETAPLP
Chain of Serine/threonine-protein kinase PAK 3 (Homo sapiens) (O75914 whole entry, looked up): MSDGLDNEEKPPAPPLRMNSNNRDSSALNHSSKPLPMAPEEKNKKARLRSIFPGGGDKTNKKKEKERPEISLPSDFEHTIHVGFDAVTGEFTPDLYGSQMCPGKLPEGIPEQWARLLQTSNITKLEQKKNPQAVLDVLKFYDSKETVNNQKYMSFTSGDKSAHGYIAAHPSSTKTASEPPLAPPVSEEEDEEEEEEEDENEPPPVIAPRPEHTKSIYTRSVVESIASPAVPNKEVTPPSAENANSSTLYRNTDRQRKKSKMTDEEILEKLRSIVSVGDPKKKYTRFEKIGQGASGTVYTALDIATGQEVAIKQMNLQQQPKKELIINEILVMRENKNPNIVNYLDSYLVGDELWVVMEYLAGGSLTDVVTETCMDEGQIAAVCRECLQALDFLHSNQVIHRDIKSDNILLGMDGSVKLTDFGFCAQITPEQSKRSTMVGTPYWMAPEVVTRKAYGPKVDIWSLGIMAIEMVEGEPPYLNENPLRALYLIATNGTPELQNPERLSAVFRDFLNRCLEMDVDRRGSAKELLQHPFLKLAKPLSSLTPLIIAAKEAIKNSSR

CC(C)(O)[C@H](F)CN1Cc2cc(NC(=O)c3cnn4cccnc34)c(N3CCOCC3)cc2C1=O
inactive: inhibition [1] 22.5% | inhibition [2] 37.5% | inhibition [3] 7.5% | inhibition [4] 2% | inhibition [5] 2% | inhibition [6] 19% | inhibition [7] 3.53% | inhibition [8] 3.24% | inhibition [9] 40.5% | inhibition [11] 7.5% | inhibition [12] -0.18% | inhibition [13] 13% | inhibition [14] -5.24% | inhibition [15] -7.48% | inhibition [16] 2.5% | inhibition [17] 0.5% | inhibition [18] 9% | inhibition [19] -0.13% | inhibition [20] -2.71% | inhibition [21] 6.5% | inhibition [22] 8% | inhibition [23] 3.5% | inhibition [24] 2% | inhibition [25] 2% | inhibition [26] 17% | inhibition [27] 20.8% | inhibition [28] 13% | inhibition [29] -2% | inhibition [30] -2% | inhibition ([31]; Compound concentration 1.0 uM) 83.5% | inhibition [32] 46.5% | inhibition [33] 5.5% | inhibition [34] 15.5% | inhibition [35] 1.48% | inhibition [36] 21% | inhibition [37] -0% | inhibition [38] 7% | inhibition [39] 6.2% | inhibition [40] 12.5% | inhibition [41] 3.5% | inhibition [42] 18.5% | inhibition [43] -1.5% | inhibition [45] 10% | inhibition [46] -2.64% | inhibition [47] 5.5% | inhibition [48] -6.5% | inhibition [49] -1% | inhibition [51] 21.3% | inhibition [52] 13.3% | inhibition [53] 23.8%
282 nM: IC50 [31]
active: IC50 [10] 290 nM | EC50 [44] 3 nM | IC50 [44] 3.3 nM | IC50 [50] 190 nM
